{"source": "patent US20190358181A1", "about": "“METHODS FOR AUTISM SPECTRUM DISORDER PHARMACOTHERAPY” (priority 2017, published 2019)", "test_system": "610 metabolites from 63 biochemical pathways", "assay": "Targeted broad-spectrum plasma metabolomic analysis (LC-MS/MS), paired pre-infusion vs post-infusion (2-days and 6-weeks)", "assay_type": "in vivo, human", "details": "plasma, 2-days after infusion vs pre-infusion", "description": "Targeted, broad-spectrum, plasma metabolomic analysis of 610 metabolites from 63 biochemical pathways was performed by high performance liquid chromatography and tandem mass spectrometry (LC-MS/MS) on the samples collected from patients in Example 1. Venous blood was collected between the hours of 8 am and 5 pm, at least 3 hours after the last meal, into lithium-heparin vacutainer tubes (BD #367884). Plasma was separated by centrifugation at 900 g×10 minutes at room temperature within one hour of collection. The resulting fresh lithium-heparin plasma was transferred to labeled 1.2 ml or 2.0 ml externally threaded cryotubes with a minimum headspace air gap for storage at −80° C. for analysis. Samples were analyzed on an AB SCIEX QTRAP 5500 triple quadrupole mass spectrometer equipped with a Turbo V electrospray ionization (ESI) source, Shimadzu LC-20A UHPLC system, and a PAL CTC autosampler. Typically, 90 μl of plasma was thawed on ice and transferred to a 1.7 ml Eppendorf tube. Five (5.0) μl of a cocktail containing 25-35 commercial stable isotope internal standards, and 5.0 μl of 57 stable isotope internal standards that were custom-synthesized in E. coli NCM3722, Caenorhabditis elegans N2, and Komagataella phaffii (ATCC 76273; formerly known as Pichia pastoris) by metabolic labeling with 13C-glucose and 13C-bicarbonate, were added, mixed, and incubated for 10 min at 20° C. to permit small molecules and vitamins in the internal standards to associate with plasma binding proteins. Macromolecules (protein, DNA, RNA, glycans, etc.) were precipitated by extraction with 4 volumes (400 μl) of cold (−20° C.), acetonitrile:methanol (50:50) (LCMS grade, Cat #LC015-2.5 and GC230-4, Burdick & Jackson, Honeywell), vortexed vigorously, and incubated on crushed ice for 10 min, then removed by centrifugation at 16,000 g×10 min at 4° C. The supernatants containing the extracted metabolites and internal standards in the resulting 40:40:20 solvent mix of acetonitrile:methanol:water were transferred to labeled cryotubes and stored at −80° C. for LCMS/MS analysis.\nLC-MS/MS analysis was performed by scheduled multiple reaction monitoring (sMRM) under Analyst v1.6.2 software control in both negative and positive mode with rapid polarity switching (50 ms). Nitrogen was used for curtain gas (set to 30), collision gas (set to high), ion source gas 1 and 2 (set to 35). The source temperature was 500° C. Spray voltage was set to −4500 V in negative mode and 5500 V in positive mode. The values for Q1 and Q3 mass-to-charge ratios (m/z), declustering potential (DP), entrance potential (EP), collision energy (CE), and collision cell exit potential (CXP) were determined and optimized for each MRM for each metabolite. Ten microliters of extract was injected by PAL CTC autosampler via a 10 μl stainless steel loop into a 250 mm×2.0 mm, 4 μm polymer based NH2 HPLC column (Asahipak NH2P-40 2E, Showa Denko America, Inc., NY) held at 25° C. for chromatographic separation. The mobile phase was solvent A: 95% water with 20 mM (NH4)2CO3 (Sigma, Fluka Cat #74415-250G-F), 5% acetonitrile, and 38 mM NH4OH (Sigma, Fluka Cat #17837-100ML), final pH 9.75; solvent B: 100% acetonitrile. Separation was achieved using the following gradient: 0-3.5 min: 95% B, 3.6-8 min: 85% B, 8.1-13 min: 75% B, 13.5-35 min: 0% B, 36-46 min: 95% B, 46.1 min: end. The flow rate was 200 μl/min. Pump pressures ranged from 920-2600 psi over the course of the gradient. All the samples were kept at 4° C. during analysis. The chromatographic peaks were identified using MultiQuant (v3.0, Sciex), confirmed by manual inspection, and the peak areas integrated. […]", "key": {"[1]": {"details": "SAM, SAH, Methionine, Cysteine, Glutathione Metabolism"}, "[2]": {"details": "Taurine, Hypotaurine Metabolism"}, "[3]": {"details": "Tryptophan, Kynurenine, Serotonin, Melatonin Metabolism"}, "[4]": {"details": "Tyrosine and Phenylalanine Metabolism"}, "[5]": {"details": "Vitamin D (Calciferol) Metabolism"}}, "data": [{"smiles": "Cc1ccc(C(=O)Nc2ccc(S(=O)(=O)O)c3cc(S(=O)(=O)O)cc(S(=O)(=O)O)c23)cc1NC(=O)c1cccc(NC(=O)Nc2cccc(C(=O)Nc3cc(C(=O)Nc4ccc(S(=O)(=O)O)c5cc(S(=O)(=O)O)cc(S(=O)(=O)O)c45)ccc3C)c2)c1", "note": "[Suramin, suramin]", "values": [{"measurement": "Z Score, Azelaic acid", "setting": "Nitric Oxide, Superoxide, Peroxide Metabolism", "value": "−2.024"}, {"measurement": "Linear Ratio, LysoPC(16:0)", "setting": "Phospholipid Metabolism", "value": 0.777}, {"measurement": "Linear Ratio, PA(16:0/16:1)", "setting": "Phospholipid Metabolism", "value": 0.793}, {"measurement": "Linear Ratio, PG(16:0/16:0)", "setting": "Phospholipid Metabolism", "value": 0.549}, {"measurement": "VIP Score, LysoPC(16:0)", "setting": "Phospholipid Metabolism", "value": 2.067}, {"measurement": "VIP Score, PA(16:0/16:1)", "setting": "Phospholipid Metabolism", "value": 1.998}, {"measurement": "VIP Score, PG(16:0/16:0)", "setting": "Phospholipid Metabolism", "value": 1.664}, {"measurement": "Z Abs, LysoPC(16:0)", "setting": "Phospholipid Metabolism", "value": 0.908}, {"measurement": "Z Abs, PA(16:0/16:1)", "setting": "Phospholipid Metabolism", "value": 0.813}, {"measurement": "Z Abs, PG(16:0/16:0)", "setting": "Phospholipid Metabolism", "value": 0.667}, {"measurement": "Z Score, LysoPC(16:0)", "setting": "Phospholipid Metabolism", "value": "−0.908"}, {"measurement": "Z Score, PA(16:0/16:1)", "setting": "Phospholipid Metabolism", "value": "−0.813"}, {"measurement": "Z Score, PG(16:0/16:0)", "setting": "Phospholipid Metabolism", "value": "−0.667"}, {"measurement": "Linear Ratio, 1-Methyladenine", "setting": "Purine Metabolism", "value": 1.631}, {"measurement": "Linear Ratio, AICAR", "setting": "Purine Metabolism", "value": 1.309}, {"measurement": "Linear Ratio, Allantoin", "setting": "Purine Metabolism", "value": 1.663}, {"measurement": "Linear Ratio, Cyclic adenosine monophosphate", "setting": "Purine Metabolism", "value": 0.855}, {"measurement": "Linear Ratio, Deoxyguanosine diphosphate", "setting": "Purine Metabolism", "value": 0.889}, {"measurement": "Linear Ratio, Guanosine", "setting": "Purine Metabolism", "value": 0.702}, {"measurement": "Linear Ratio, Hypoxanthine", "setting": "Purine Metabolism", "value": 0.745}, {"measurement": "Linear Ratio, Purine", "setting": "Purine Metabolism", "value": 1.203}, {"measurement": "Linear Ratio, Xanthosine", "setting": "Purine Metabolism", "value": 0.821}, {"measurement": "VIP Score, 1-Methyladenine", "setting": "Purine Metabolism", "value": 2.033}, {"measurement": "VIP Score, AICAR", "setting": "Purine Metabolism", "value": 1.787}, {"measurement": "VIP Score, Allantoin", "setting": "Purine Metabolism", "value": 2.195}, {"measurement": "VIP Score, Cyclic adenosine monophosphate", "setting": "Purine Metabolism", "value": 1.949}, {"measurement": "VIP Score, Deoxyguanosine diphosphate", "setting": "Purine Metabolism", "value": 2.264}, {"measurement": "VIP Score, Guanosine", "setting": "Purine Metabolism", "value": 1.519}, {"measurement": "VIP Score, Hypoxanthine", "setting": "Purine Metabolism", "value": 2.267}, {"measurement": "VIP Score, Purine", "setting": "Purine Metabolism", "value": 1.847}, {"measurement": "VIP Score, Xanthosine", "setting": "Purine Metabolism", "value": 1.764}, {"measurement": "Z Abs, 1-Methyladenine", "setting": "Purine Metabolism", "value": 1.337}, {"measurement": "Z Abs, AICAR", "setting": "Purine Metabolism", "value": 1.310}, {"measurement": "Z Abs, Allantoin", "setting": "Purine Metabolism", "value": 0.926}, {"measurement": "Z Abs, Cyclic adenosine monophosphate", "setting": "Purine Metabolism", "value": 0.681}, {"measurement": "Z Abs, Deoxyguanosine diphosphate", "setting": "Purine Metabolism", "value": 1.276}, {"measurement": "Z Abs, Guanosine", "setting": "Purine Metabolism", "value": 0.766}, {"measurement": "Z Abs, Hypoxanthine", "setting": "Purine Metabolism", "value": 1.000}, {"measurement": "Z Abs, Purine", "setting": "Purine Metabolism", "value": 1.137}, {"measurement": "Z Abs, Xanthosine", "setting": "Purine Metabolism", "value": 1.316}, {"measurement": "Z Score, 1-Methyladenine", "setting": "Purine Metabolism", "value": 1.337}, {"measurement": "Z Score, AICAR", "setting": "Purine Metabolism", "value": 1.310}, {"measurement": "Z Score, Allantoin", "setting": "Purine Metabolism", "value": 0.926}, {"measurement": "Z Score, Cyclic adenosine monophosphate", "setting": "Purine Metabolism", "value": "−0.681"}, {"measurement": "Z Score, Deoxyguanosine diphosphate", "setting": "Purine Metabolism", "value": "−1.276"}, {"measurement": "Z Score, Guanosine", "setting": "Purine Metabolism", "value": "−0.766"}, {"measurement": "Z Score, Hypoxanthine", "setting": "Purine Metabolism", "value": "−1.000"}, {"measurement": "Z Score, Purine", "setting": "Purine Metabolism", "value": 1.137}, {"measurement": "Z Score, Xanthosine", "setting": "Purine Metabolism", "value": "−1.316"}, {"measurement": "Linear Ratio, Cytosine", "setting": "Pyrimidine Metabolism", "value": 1.689}, {"measurement": "Linear Ratio, Orotic acid", "setting": "Pyrimidine Metabolism", "value": 0.670}, {"measurement": "VIP Score, Cytosine", "setting": "Pyrimidine Metabolism", "value": 2.556}, {"measurement": "VIP Score, Orotic acid", "setting": "Pyrimidine Metabolism", "value": 1.787}, {"measurement": "Z Abs, Cytosine", "setting": "Pyrimidine Metabolism", "value": 2.055}, {"measurement": "Z Abs, Orotic acid", "setting": "Pyrimidine Metabolism", "value": 0.612}, {"measurement": "Z Score, Cytosine", "setting": "Pyrimidine Metabolism", "value": 2.055}, {"measurement": "Z Score, Orotic acid", "setting": "Pyrimidine Metabolism", "value": "−0.612"}, {"measurement": "Linear Ratio, Cysteamine", "setting": "[1]", "value": 1.107}, {"measurement": "Linear Ratio, Cysteine-S-sulfate", "setting": "[1]", "value": 0.869}, {"measurement": "Linear Ratio, Methionine sulfoxide", "setting": "[1]", "value": 1.331}, {"measurement": "VIP Score, Cysteamine", "setting": "[1]", "value": 2.075}, {"measurement": "VIP Score, Cysteine-S-sulfate", "setting": "[1]", "value": 1.682}, {"measurement": "VIP Score, Methionine sulfoxide", "setting": "[1]", "value": 1.817}, {"measurement": "Z Abs, Cysteamine", "setting": "[1]", "value": 1.398}, {"measurement": "Z Abs, Cysteine-S-sulfate", "setting": "[1]", "value": 0.644}, {"measurement": "Z Abs, Methionine sulfoxide", "setting": "[1]", "value": 1.738}, {"measurement": "Z Score, Cysteamine", "setting": "[1]", "value": 1.398}, {"measurement": "Z Score, Cysteine-S-sulfate", "setting": "[1]", "value": "−0.644"}, {"measurement": "Z Score, Methionine sulfoxide", "setting": "[1]", "value": 1.738}, {"measurement": "Linear Ratio, SM(d18:1/20:0)", "setting": "Sphingomyelin Metabolism", "value": 0.712}, {"measurement": "Linear Ratio, SM(d18:1/20:1)", "setting": "Sphingomyelin Metabolism", "value": 0.745}, {"measurement": "VIP Score, SM(d18:1/20:0)", "setting": "Sphingomyelin Metabolism", "value": 1.576}, {"measurement": "VIP Score, SM(d18:1/20:1)", "setting": "Sphingomyelin Metabolism", "value": 2.033}, {"measurement": "Z Abs, SM(d18:1/20:0)", "setting": "Sphingomyelin Metabolism", "value": 0.770}, {"measurement": "Z Abs, SM(d18:1/20:1)", "setting": "Sphingomyelin Metabolism", "value": 1.250}, {"measurement": "Z Score, SM(d18:1/20:0)", "setting": "Sphingomyelin Metabolism", "value": "−0.770"}, {"measurement": "Z Score, SM(d18:1/20:1)", "setting": "Sphingomyelin Metabolism", "value": "−1.250"}, {"measurement": "Linear Ratio, Taurine", "setting": "[2]", "value": 0.786}, {"measurement": "VIP Score, Taurine", "setting": "[2]", "value": 2.042}, {"measurement": "Z Abs, Taurine", "setting": "[2]", "value": 0.942}, {"measurement": "Z Score, Taurine", "setting": "[2]", "value": "−0.942"}, {"measurement": "Linear Ratio, L-Kynurenine", "setting": "[3]", "value": 1.099}, {"measurement": "VIP Score, L-Kynurenine", "setting": "[3]", "value": 1.617}, {"measurement": "Z Abs, L-Kynurenine", "setting": "[3]", "value": 0.625}, {"measurement": "Z Score, L-Kynurenine", "setting": "[3]", "value": 0.625}, {"measurement": "Linear Ratio, L-Phenylalanine", "setting": "[4]", "value": 1.164}, {"measurement": "VIP Score, L-Phenylalanine", "setting": "[4]", "value": 1.839}, {"measurement": "Z Abs, L-Phenylalanine", "setting": "[4]", "value": 0.957}, {"measurement": "Z Score, L-Phenylalanine", "setting": "[4]", "value": 0.957}, {"measurement": "Linear Ratio, 1,25-Dihydroxyvitamin D3", "setting": "[5]", "value": 0.273}, {"measurement": "VIP Score, 1,25-Dihydroxyvitamin D3", "setting": "[5]", "value": 3.134}, {"measurement": "Z Abs, 1,25-Dihydroxyvitamin D3", "setting": "[5]", "value": 1.447}, {"measurement": "Z Score, 1,25-Dihydroxyvitamin D3", "setting": "[5]", "value": "−1.447"}]}]}
